Values quoted from earlier work, collected in patent publication US20160296627A1, “INTRACAMERAL IMPLANT FOR TREATMENT OF AN OCULAR CONDITION” (Envisia Therapeutics Inc., priority 2013, published 2016).
pEC50: −log10 of the molar value.

Target: Cloned Human Ciliary Body FP Prostaglandin Receptor (Homo sapiens, UniProt P43088)
Sequence (P43088 whole entry): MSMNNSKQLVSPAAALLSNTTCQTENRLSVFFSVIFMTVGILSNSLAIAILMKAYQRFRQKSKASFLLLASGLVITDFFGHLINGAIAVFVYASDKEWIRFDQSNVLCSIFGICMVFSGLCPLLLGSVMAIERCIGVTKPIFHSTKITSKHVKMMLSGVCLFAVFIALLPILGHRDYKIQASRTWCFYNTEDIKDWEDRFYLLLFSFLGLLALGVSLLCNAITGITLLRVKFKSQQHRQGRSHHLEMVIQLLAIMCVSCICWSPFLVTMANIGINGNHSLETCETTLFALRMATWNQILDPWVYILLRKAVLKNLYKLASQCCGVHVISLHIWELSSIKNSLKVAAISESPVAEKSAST
Conditions: Sharif et al. 2002, read-out: Functional Potency, EC50
In the case of CC(C)OC(=O)CCC/C=C\C[C@@H]1[C@@H](CC[C@@H](O)CCc2ccccc2)[C@H](O)C[C@@H]1O [Latanoprost], the pEC50 is given as 6.90.
In the case of CC(C)OC(=O)CCC/C=C\C[C@@H]1[C@@H](/C=C/[C@@H](O)COc2cccc(C(F)(F)F)c2)[C@H](O)C[C@@H]1O [Travoprost, propan-2-yl 7-[3,5-dihydroxy-2-[3-hydroxy-4-[3-(trifluoromethyl)phenoxy]-but-1-enyl]-cyclopentyl]hept-5-enoate], the pEC50 is listed as 7.37.
For O=C(O)CCCC=CCC1C(O)CC(O)C1C=CC(O)COc1cccc(C(F)(F)F)c1 (stereo not drawn) [Travoprost acid], the pEC50 is listed as 8.49.
For O=C(O)CCC/C=C\C[C@@H]1[C@@H](CC[C@@H](O)CCc2ccccc2)[C@H](O)C[C@@H]1O [Latanoprost acid], the pEC50 is given as 7.26.
In the case of CCNC(=O)CCC/C=C\C[C@@H]1[C@@H](/C=C/[C@@H](O)CCc2ccccc2)[C@H](O)C[C@@H]1O [Bimatoprost], the pEC50 is listed as 6.16.
For O=C(O)CCC/C=C\C[C@@H]1[C@@H](/C=C/[C@@H](O)CCc2ccccc2)[C@H](O)C[C@@H]1O [Bimatoprost acid], the pEC50 is listed as 8.24.
